Reference: article PMC8125615 (Molecules, 2021)
Read-outs that look alike come from different tables or passages of the source.

Experiments:
SARS CoV-2 M^pro = SARS CoV-2 M^pro (Severe acute respiratory syndrome coronavirus 2, UniProt P0DTD1); experiment: In vitro enzyme inhibition assay (SARS-CoV-2 main protease assay kit, fluorescence); format: biochemical
Experimental: GC376 was used as a reference standard inhibitor.
Briefly, 10 µL of test compounds of different concentrations were added into a 96-well plate followed by pipetting 30 µL of the diluted protease 15 µg/mL. The mixtures were incubated for 30 min at room temperature, and then 10 µL of the substrate was dissolved in the reaction buffer and added to reach a 50-µL final volume and 40-µM final concentration. The reaction mixture was then incubated for 4 h at 20 °C followed by measuring the produced fluorescence using a TECAN spark microplate-reading fluorimeter.

SARS CoV M^pro = conditions: cited from earlier work
[1] = SARS CoV-2 M^pro, fluorescence kit assay, GC376 as reference standard, read-out: IC50

Row | Structure (SMILES) | IC50 (SARS CoV-2 M^pro; [1]) | IC50 (SARS CoV-2 M^pro) | IC50 (SARS CoV M^pro)
1 | C=C(C)[C@@H]1CC[C@]2(CO)CC[C@]3(C)[C@H](CC[C@@H]4[C@@]5(C)CC[C@H](O)C(C)(C)[C@@H]5CC[C@]43C)[C@@H]12 [betulin] | 89.7 µM |  | 
2 | C=C(C)[C@@H]1CC[C@]2(C(=O)O)CC[C@]3(C)[C@H](CC[C@@H]4[C@@]5(C)CC[C@H](O)C(C)(C)[C@@H]5CC[C@]43C)[C@@H]12 [betulinic acid] |  | 14.5 ± 1.3 µM | 10 µM
3 | CC1(C)CC[C@]2(C(=O)O)CC[C@]3(C)C(=CC[C@@H]4[C@@]5(C)C[C@@H](O)[C@H](O)C(C)(C)[C@@H]5CC[C@]43C)[C@@H]2C1 [maslinic acid] | 3.22 ± 0.26 µM |  | 
4 | C[C@H]1[C@H](C)CC[C@]2(C(=O)O)CC[C@]3(C)C(=CC[C@@H]4[C@@]5(C)CC[C@H](O)C(C)(C)[C@@H]5CC[C@]43C)[C@H]12 [ursolic acid] | 12.6 ± 0.28 µM |  | 
